A word on the melting point: it is the temperature, or range, at which the solid turns liquid.

Consider four molecules from article PMC8468607 (International Journal of Molecular Sciences, 2021).

Each structure is given as a SMILES string.

Data set [1] concerns A549 cells. Nature of the data set: Apoptosis by annexin V-FITC/PI FACS, A549. The class given is cell-based. As to conditions: Homo sapiens, 48 h, Q4 lower left, annexin V-FITC and PI negative, read-out: FACS quadrant Q4 viable cells, A549. How it is done:
(§1) Then, the cells were stained with propidium iodide and Annexin V-FITC using a FITC Annexin V apoptosis detection kit (BD Biosciences, San Jose, CA, USA) as per the manufacturer’s instructions. Briefly, the vehicle- or the drug-treated cells (1 × 10^5) were washed with ice-cold PBS twice and suspended in 1× binding buffer (100 μL). Then, 5 μL of Annexin V-FITC and 5 µL of PI were added, gently vortexed, and incubated for 15 min at 25 °C in the dark. Thereafter, 400 µL of 1× binding buffer was added and analyzed by flow cytometry (FACSVerse Cytometer, BD Biosciences).

The test system of data set [2] is Hep3B cells xenografted onto CAM. Kind of data set: Hep3B xenografted CAM tumor model. The class given is in vivo, chick. The following applies: 30 and 150 pmol/CAM, 4 days of incubation. The procedure: Fertilized chicken eggs were purchased from Byeolbichon Farm (Gyeongbuk, South Korea) and incubated at 37 °C with 55% relative humidity. On day 9 of egg incubation, a small hole was made in the shell over the air sac after the selection of bifurcated vessels. Another hole was made on the broadside using a needle by applying negative pressure to the wider part, creating false air sac. Using a grinding wheel (Dremel, Racine, WI, USA), a small window (1 cm^2) was created in the eggshell above the false air sac. […] The mixture was inoculated on the CAM (final drug doses = 30 and 150 pmol/CAM), and the anti-tumor activity of the drugs was compared at the same concentrations. After sealing the window in the eggshell, the eggs were then returned to the incubator. After 4 days of incubation, tumor tissues attached to CAM were resected from the embryo and harvested. The number of vessel branch points within the tumor region was counted and analyzed using ImageJ software. Chick embryo experiments were performed in accordance with the institutional guidelines of the Institute of Laboratory Animal Resources (1996) and Yeungnam University for the care and use of laboratory animals (2009). The experiment protocol was reviewed and approved by the Institutional Animal Care and Use Committee at the Yeungnam University.

A short description of data set [3]: Cytotoxicity assay (MTT), H6c7 normal pancreatic duct epithelial cells. The class given is cell-based. As to conditions: normal human pancreatic duct epithelial cells, mean ± S.E.M., read-out: IC50 against cell viability (cytotoxicity), H6c7. How it is done: (§2) Human cancer cell lines derived from the liver (Hep3B, Huh7) and the lung (A549, H1299) were obtained from American Type Culture Collection (ATCC, Manassas, VA, USA). An H6c7 human normal pancreatic duct epithelial cell line was purchased from Kerafast (Boston, MA, USA). Hep3B, Huh7, and A549 cells were cultured in Dulbecco′s Modified Eagle′s Medium (DMEM) (Hyclone, Logan, UT, USA), and H1299 cells were cultured in an RPMI-1640 medium (Hyclone). The media were supplemented with 10% fetal bovine serum (FBS) (Gibco/ThermoFisher Scientific) and 1% penicillin/streptomycin (Gibco/ThermoFisher Scientific). In the case of H6c7, the cells were maintained in a keratinocyte serum-free medium supplemented with a recombinant […] (rEGF) and bovine pituitary extract (Gibco/ThermoFisher Scientific). All the cells were incubated at 37 °C under a 5% CO2 atmosphere.
The H6c7 cell line was seeded in a 96-well plate in a complete medium. After 24 h, the culture medium was changed into a keratinocyte serum-free medium. […] The optical density was measured at 540 nm using a Spectrostar Nano microplate reader (BMG LABTECH).

The test system of data set [4] is Hep3B cells. Kind of data set: Apoptosis by annexin V-FITC/PI FACS, Hep3B. It is filed as cell-based. The following applies: Homo sapiens, 48 h, Q4 lower left, annexin V-FITC and PI negative, read-out: FACS quadrant Q4 viable cells, Hep3B. How it is done:
as §1

The test system of data set [5] is several cancer cell lines. Set-up: method as in PMID 27145715. As to conditions: cited from earlier work.
In the next data set the test system is normal cell lines. Set-up: method as in PMID 27145715. The following applies: cited from earlier work.
For data set [6], the system named is A549 cells. Kind of data set: Proliferation assay (MTT), A549. The class given is cell-based. The following applies: Homo sapiens, NSCLC cell line, 48 h, mean ± S.E.M., read-out: IC50 against cell proliferation, A549.
Source text: as §2, with “Hep3B, Huh7, and A549 cells were cultured in Dulbecco′s Modified Eagle′s Medium (DMEM) (Hyclone, Logan, UT, USA), and H1299 cells were cultured in an RPMI-1640 medium (Hyclone).” left out, “Scientific).” for “Scientific). All the cells were incubated at 37 °C under a 5% CO2 atmosphere.”
(§3) HCC (Hep3B, Huh7) and NSCLC (A549, H1299) cell lines were seeded in a 96-well plate at a density of 2.5 × 10^4 cells/mL in complete media and allowed to adhere for 24 h. […] Then, the media were removed, and 200 µL of dimethyl sulfoxide (DMSO) (Duksan, Ansan, South Korea) was added to solubilize the formazan crystal. After a 30 min incubation, the absorbance was measured at 540 nm using a microplate reader (BMG LABTECH, Ortenberg, Germany).

For data set [7], the system named is Hep3B cells. Nature of the data set: Proliferation assay (MTT), Hep3B. It is filed as cell-based. The following applies: Homo sapiens, HCC cell line, 48 h, mean ± S.E.M., read-out: IC50 against cell proliferation, Hep3B.
Source text: as §2, with “Hep3B, Huh7, and A549 cells were cultured in Dulbecco′s Modified Eagle′s Medium (DMEM) (Hyclone, Logan, UT, USA), and H1299 cells were cultured in an RPMI-1640 medium (Hyclone).” left out, “Scientific).” for “Scientific). All the cells were incubated at 37 °C under a 5% CO2 atmosphere.”
as §3

The next data set deals with H1299 cells. Nature of the data set: Proliferation assay (MTT), H1299. The class given is cell-based. As to conditions: Homo sapiens, NCI-H1299, NSCLC cell line, 48 h, mean ± S.E.M., read-out: IC50 against cell proliferation, H1299.
Source text: as §2, with “Hep3B, Huh7, and A549 cells were cultured in Dulbecco′s Modified Eagle′s Medium (DMEM) (Hyclone, Logan, UT, USA), and H1299 cells were cultured in an RPMI-1640 medium (Hyclone).” left out, “Scientific).” for “Scientific). All the cells were incubated at 37 °C under a 5% CO2 atmosphere.”
as §3

A further data set concerns Huh7 cells. Kind of data set: Proliferation assay (MTT), Huh7. The class given is cell-based. The following applies: Homo sapiens, Huh-7, HCC cell line, 48 h, mean ± S.E.M., read-out: IC50 against cell proliferation, Huh7.
Source text: as §2, with “Hep3B, Huh7, and A549 cells were cultured in Dulbecco′s Modified Eagle′s Medium (DMEM) (Hyclone, Logan, UT, USA), and H1299 cells were cultured in an RPMI-1640 medium (Hyclone).” left out, “Scientific).” for “Scientific). All the cells were incubated at 37 °C under a 5% CO2 atmosphere.”
as §3

The target of a further data set is T1, human c-Met kinase (Homo sapiens, UniProt P08581).
T1 construct: purchased Reaction Biology Corporation (Malvern, PA, USA), contract assay service
Nature of the data set: c-Met kinase assay (Kinase HotSpot, Reaction Biology). It is filed as biochemical. The following applies: for c-Met inhibition at fixed concentration / inhibition at 1 µM: 1 μM compound; for c-Met inhibition at fixed concentration: 1 µM; for inhibition at 1 µM: read-out: c-Met inhibition at fixed concentration; for IC50: three independent experiments, ATP 10 μM, read-out: IC50 against c-Met kinase. The procedure:
Briefly, human c-Met kinase (5–10 mU) and peptide substrate ([…], 20 µM) were prepared in a reaction buffer with a final volume of 25 μL. The compounds were delivered into the reaction, followed ~20 min. later by the addition of a mixture of ATP and [γ-33P-ATP] (specific activity approx. 500 cpm/pmol, concentration as required) to a final concentration of 10 μM. […] Then, the reaction was spotted onto a P30 filtermat, and unbound phosphate was removed by washing 3 times for 5 min in 75 mM phosphoric acid and once in methanol prior to drying and scintillation counting. […] IC50 values and curve fits were obtained using GraphPad Prism 5 software.

Another data set has as its system c-MET. Nature of the data set: Immunoblotting of c-MET expression and phosphorylation in HCC and NSCLC cell lines. The class given is cell-based, human. The following applies: 10 μM, 24 and 48 h; Hep3B, Huh7, A549, H1299 cells.

T1 sequence (P08581 25-1390): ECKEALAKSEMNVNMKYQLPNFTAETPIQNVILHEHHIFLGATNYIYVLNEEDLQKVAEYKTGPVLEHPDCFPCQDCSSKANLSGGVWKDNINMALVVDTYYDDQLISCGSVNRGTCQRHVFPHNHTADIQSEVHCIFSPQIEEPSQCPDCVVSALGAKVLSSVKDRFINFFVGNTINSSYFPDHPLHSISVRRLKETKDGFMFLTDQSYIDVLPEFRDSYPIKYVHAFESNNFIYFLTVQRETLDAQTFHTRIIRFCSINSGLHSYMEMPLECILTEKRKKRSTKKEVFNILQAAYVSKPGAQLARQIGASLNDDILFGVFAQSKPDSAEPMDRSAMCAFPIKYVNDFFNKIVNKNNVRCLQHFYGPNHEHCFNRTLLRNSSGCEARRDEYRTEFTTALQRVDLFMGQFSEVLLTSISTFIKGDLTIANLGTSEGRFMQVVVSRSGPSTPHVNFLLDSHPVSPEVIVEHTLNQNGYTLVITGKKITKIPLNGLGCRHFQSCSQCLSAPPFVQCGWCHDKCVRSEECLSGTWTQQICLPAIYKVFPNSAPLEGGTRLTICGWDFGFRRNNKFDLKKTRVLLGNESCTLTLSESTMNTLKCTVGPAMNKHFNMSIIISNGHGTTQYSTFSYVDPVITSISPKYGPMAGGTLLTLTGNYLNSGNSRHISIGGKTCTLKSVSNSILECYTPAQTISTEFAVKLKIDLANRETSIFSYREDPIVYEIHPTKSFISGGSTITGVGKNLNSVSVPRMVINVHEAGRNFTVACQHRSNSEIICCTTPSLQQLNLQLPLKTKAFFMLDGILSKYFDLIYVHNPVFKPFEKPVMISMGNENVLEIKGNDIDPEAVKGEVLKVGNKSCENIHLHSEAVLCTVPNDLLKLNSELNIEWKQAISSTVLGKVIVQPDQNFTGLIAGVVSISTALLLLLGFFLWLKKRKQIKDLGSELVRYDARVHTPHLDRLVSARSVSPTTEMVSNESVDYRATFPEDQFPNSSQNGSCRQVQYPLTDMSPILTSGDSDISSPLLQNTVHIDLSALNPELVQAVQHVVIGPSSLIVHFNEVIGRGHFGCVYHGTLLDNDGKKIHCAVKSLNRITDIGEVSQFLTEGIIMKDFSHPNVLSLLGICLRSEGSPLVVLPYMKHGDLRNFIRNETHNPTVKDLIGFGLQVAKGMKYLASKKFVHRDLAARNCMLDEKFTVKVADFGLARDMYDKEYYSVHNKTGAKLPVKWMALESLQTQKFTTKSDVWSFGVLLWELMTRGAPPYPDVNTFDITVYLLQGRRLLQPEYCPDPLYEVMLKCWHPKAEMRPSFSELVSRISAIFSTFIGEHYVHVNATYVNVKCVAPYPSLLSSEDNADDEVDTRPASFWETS

With `COc1cc2nccc(Oc3ccc(NC(=O)C4(C(=O)Nc5ccc(F)cc5)CC4)cc3)c2cc1OC` [Cabozantinib, cabozantinib, reference compound], the viability at 10 µM with A549 cells [1] worked out at 81.3%; in the data set with Hep3B cells [4], 79.5%. Besides, in data set [2], the “Tumor-induced angiogenesis (number of new vessel branches)” value is recorded as “significantly blocked”. Moreover, the IC50 at 48 h in [3] is 39.4 ± 4.3 µM.

`CCN(CC)CCNC(=O)c1c(C)[nH]c(/C=C2\C(=O)Nc3nc(C)c(O)c(C)c32)c1C` [Compound 1]: in [5], the “Anti-cancer activity against several cancer cell lines compared to sunitinib” value is recorded as “comparable anti-cancer activity”. For the same molecule, the “Toxicity to normal cell lines compared to sunitinib” value in the data set on normal cell lines is reported as “less toxic to normal cell lines”.

`COc1cc2nccc(Oc3c(C)nc(NC(=O)C4(C(=O)Nc5ccc(F)cc5)CC4)c(C)c3C)c2cc1OC` [Compound 3] displayed a melting point of 141 °C. For the same molecule, the IC50 in the data set with A549 cells [6] was > 100 µM. In addition, in the data set with Hep3B cells [7], the IC50 is > 100 µM. For the same molecule, the IC50 with H1299 cells was > 100 µM. Further, the IC50 in the data set on Huh7 cells was > 100 µM. Moreover, at human c-Met kinase, the “c-Met inhibition at fixed concentration” value came out at 4%, the inhibition at 1 µM amounted to 3.8% and the IC50 was > 1 µM. For the same molecule, the IC50 at 48 h in data set [3] is > 100 µM.

Turning to `COc1cc2nccc(Oc3ccc(NC(=O)C4(C(=O)Nc5ccc(F)cc5)CC4)nc3)c2cc1OC` [Compound 4], the melting point is 119 °C. Besides, the IC50 in the data set with A549 cells [6] was found to be 12.4 ± 6.9 µM. For the same molecule, the IC50 with Hep3B cells [7] is 2.1 ± 0.5 µM. The viability at 10 µM in the data set with A549 cells [1] came to 61.8%. In addition, in the data set with c-MET, the “Expression of c-MET and its phosphorylation” value was “significantly reduced”. Besides, the IC50 in the data set with H1299 cells was found to be 8.9 ± 1.2 µM. Moreover, in data set [2], the “Inhibitory effect on tumor weight” value is recorded as “greater than that of cabozantinib” and the “Tumor-induced angiogenesis (number of new vessel branches)” value is “significantly blocked”. The IC50 in the data set with Huh7 cells amounted to 6.2 ± 1.8 µM. Further, at human c-Met kinase, the “c-Met inhibition at fixed concentration” value stood at 94%, the inhibition at 1 µM amounted to 94.3% and the IC50 worked out at 0.0049 ± 0.0023 µM. The IC50 at 48 h in data set [3] is 19.9 ± 1.8 µM. In addition, the viability at 10 µM in the data set on Hep3B cells [4] turned out to be 35.3%.
